Assay results published in ChEMBL document CHEMBL1154196, “Synthesis and evaluation of (S,S)-N,N'-bis-[3-(2,2',6,6'-tetramethylbenzhydryloxy)-2-hydroxy-propyl]-ethylenediamine (S2824) analogs with anti-tuberculosis activity” (2009).
Converted amounts (≈) assume the structure as drawn.

Experiments:
[1] = tested on: Mycobacterium tuberculosis; assay: Antitubercular activity against isoniazid, rifampin-resistant Mycobacterium tuberculosis by radiometric BACTEC460 method; assay type: functional
[2] = tested on: Mycobacterium tuberculosis; assay: Antitubercular activity against isoniazid, rifampin, ethambutol, streptomycin-resistant Mycobacterium tuberculosis by radiometric BACTEC460 method; assay type: functional

With `Cc1ccc(C(OC[C@H](O)CN2CCN(C[C@@H](O)COC(c3ccc(C)cc3)c3ccc(C)cc3)CC2)c2ccc(C)cc2)cc1` as the compound, how does the MIC [1] read?
The MIC was 6.25 µg/mL (≈ 10 µM).

And the MIC [2]?
The MIC was 6.25 µg/mL (≈ 10 µM).

With `Cc1ccc(C(OC[C@@H](O)CN2CCCN(C[C@H](O)COC(c3ccc(C)cc3)c3ccc(C)cc3)CC2)c2ccc(C)cc2)cc1` as the compound, how does the MIC [1] read?
Its MIC is 1.56 µg/mL (≈ 2.45 µM).

What about the MIC [2] of the same compound?
The MIC was 0.78 µg/mL (≈ 1.22 µM).

How did the MIC [1] turn out when `Cc1ccc(C(OC[C@H](O)CN2CCCN(C[C@@H](O)COC(c3ccc(C)cc3)c3ccc(C)cc3)CC2)c2ccc(C)cc2)cc1` was run?
The MIC was 1.56 µg/mL (≈ 2.45 µM).

What about the MIC [2] of the same compound?
Its MIC is 1.56 µg/mL (≈ 2.45 µM).

How did the MIC [1] turn out when `CC[C@@H](CO)NCCN[C@@H](CC)CO` [ETHAMBUTOL] was run?
Its MIC is 3.13 µg/mL (≈ 15.3 µM).

And the MIC [2]?
The MIC was over 12.5 µg/mL.
